Values quoted from earlier work as cited in patent US12648940B2, “Bupivacaine liquid formulations” (FRESENIUS KABI AUSTRIA GMBH, priority 2023, dated 2026).

In the case of `CCCCN1CCCCC1C(=O)Nc1c(C)cccc1C` (centres unmarked) [Bupivacaine, 1-butyl-N-(2,6-dimethylphenyl)piperidine-2-carboxamide], the pKa is listed as “approximately 8.1” and the “pKa of the amine of the piperidine group” value (at 25° C.) is listed as ~8.1.
